Results taken from patent publication US20130231365A1, “Treatment of Inflammation with Certain Alpha-7 Nicotinic Acid Receptor Agonists in Combination with Acetylcholinesterase Inhibitors” (priority 2010, published 2013).

Target: T1, human alpha7 receptor (Homo sapiens, UniProt P36544)
T1 construct: expressed in transfected cells; host or cells: Xenopus laevis oocytes (cDNA injected into the germinal vesicle)
Test: Acetylcholine-evoked currents in Xenopus oocytes with co-application of the alpha7 agonist
Format: cell-based
Protocol: FIG. 1 depicts a protocol for administering acetylcholine and (R)-7-chloro-N-(quinuclidin-3-yl)benzo[b]thiophene-2-carboxamide hydrochloride monohydrate to Xenopus oocytes.
FIG. 2 depicts the results of an assay showing the action of acetylcholine and (R)-7-chloro-N-(quinuclidin-3-yl)benzo[b]thiophene-2-carboxamide hydrochloride monohydrate.
In the study described below currents were measures in Xenopus oocytes. Acetylcholine at 40 micromolar was administered prior to administration of (R)-7-chloro-N-(quinuclidin-3-yl)benzo[b]thiophene-2-carboxamide is (R)-7-chloro-N-(quinuclidin-3-yl)benzo[b]thiophene-2-carboxamide hydrochloride monohydrate at 0.3 nM using the protocol depicted in FIG. 1. Currents were normalized to unity versus the average acetylcholine-evoked current measured during the stabilization period (4 time points).
The EC50 for an alpha7 receptor agonist can be measured using Xenopus oocytes as described previously (Boess et al. 2007 J Pharm Exp Therap 321:716; Methfessel et al., 1986 Pflueg Arch Eur J Physiol 407:577-588; Schnizler et at 2003 Receptors Channels 9:41-48). […] Solutions of test compounds in normal frog Ringer's solution are superfused through the recording chamber for 20 s while the voltage-clamp current is recorded. […] By testing with various concentration of the alpha7 receptor agonist the EC50 for agonism can be determined.

T1 sequence (P36544 23-502): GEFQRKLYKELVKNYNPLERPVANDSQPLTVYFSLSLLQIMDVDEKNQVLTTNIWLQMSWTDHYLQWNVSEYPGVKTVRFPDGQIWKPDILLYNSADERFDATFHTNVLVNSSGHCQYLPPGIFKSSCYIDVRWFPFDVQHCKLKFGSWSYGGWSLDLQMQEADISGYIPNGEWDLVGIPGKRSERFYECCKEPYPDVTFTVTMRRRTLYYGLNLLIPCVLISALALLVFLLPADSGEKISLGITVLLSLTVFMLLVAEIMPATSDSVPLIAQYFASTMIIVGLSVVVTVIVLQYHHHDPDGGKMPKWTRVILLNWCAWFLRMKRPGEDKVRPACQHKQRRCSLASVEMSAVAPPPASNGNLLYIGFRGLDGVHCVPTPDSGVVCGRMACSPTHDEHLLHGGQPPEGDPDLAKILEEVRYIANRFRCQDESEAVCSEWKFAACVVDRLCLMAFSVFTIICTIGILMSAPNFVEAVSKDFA

SMILES: Cl.O=C(N[C@H]1CN2CCC1CC2)c1cc2cccc(Cl)c2s1 [(R)-7-chloro-N-(quinuclidin-3-yl)benzo[b]thiophene-2-carboxamide hydrochloride monohydrate]
- acetylcholine-evoked current, normalized to unity versus the average current of the stabilization period (acetylcholine 40 micromolar given before compound at 0.3 nM, after 8 and 16 minutes incubation, average of 3 cells, FIG. 2): large current increase
- effect when administered with acetylcholine (very low concentrations of compound, well below the expected EC50): synergistic effect
